Reference: US9212182B2, “Bicyclic sulfonamide compounds as sodium channel inhibitors” (AMGEN INC., priority 2013, dated 2015)

Molecular target: Nav 1.7 (Homo sapiens (Human), UniProt Q15858)
Test: in-vitro Nav 1.7 PX (IC50)
Assay type: cell-based
Conditions: in-vitro Nav 1.7 PX data

Chain of Nav 1.7 (Q15858 whole entry): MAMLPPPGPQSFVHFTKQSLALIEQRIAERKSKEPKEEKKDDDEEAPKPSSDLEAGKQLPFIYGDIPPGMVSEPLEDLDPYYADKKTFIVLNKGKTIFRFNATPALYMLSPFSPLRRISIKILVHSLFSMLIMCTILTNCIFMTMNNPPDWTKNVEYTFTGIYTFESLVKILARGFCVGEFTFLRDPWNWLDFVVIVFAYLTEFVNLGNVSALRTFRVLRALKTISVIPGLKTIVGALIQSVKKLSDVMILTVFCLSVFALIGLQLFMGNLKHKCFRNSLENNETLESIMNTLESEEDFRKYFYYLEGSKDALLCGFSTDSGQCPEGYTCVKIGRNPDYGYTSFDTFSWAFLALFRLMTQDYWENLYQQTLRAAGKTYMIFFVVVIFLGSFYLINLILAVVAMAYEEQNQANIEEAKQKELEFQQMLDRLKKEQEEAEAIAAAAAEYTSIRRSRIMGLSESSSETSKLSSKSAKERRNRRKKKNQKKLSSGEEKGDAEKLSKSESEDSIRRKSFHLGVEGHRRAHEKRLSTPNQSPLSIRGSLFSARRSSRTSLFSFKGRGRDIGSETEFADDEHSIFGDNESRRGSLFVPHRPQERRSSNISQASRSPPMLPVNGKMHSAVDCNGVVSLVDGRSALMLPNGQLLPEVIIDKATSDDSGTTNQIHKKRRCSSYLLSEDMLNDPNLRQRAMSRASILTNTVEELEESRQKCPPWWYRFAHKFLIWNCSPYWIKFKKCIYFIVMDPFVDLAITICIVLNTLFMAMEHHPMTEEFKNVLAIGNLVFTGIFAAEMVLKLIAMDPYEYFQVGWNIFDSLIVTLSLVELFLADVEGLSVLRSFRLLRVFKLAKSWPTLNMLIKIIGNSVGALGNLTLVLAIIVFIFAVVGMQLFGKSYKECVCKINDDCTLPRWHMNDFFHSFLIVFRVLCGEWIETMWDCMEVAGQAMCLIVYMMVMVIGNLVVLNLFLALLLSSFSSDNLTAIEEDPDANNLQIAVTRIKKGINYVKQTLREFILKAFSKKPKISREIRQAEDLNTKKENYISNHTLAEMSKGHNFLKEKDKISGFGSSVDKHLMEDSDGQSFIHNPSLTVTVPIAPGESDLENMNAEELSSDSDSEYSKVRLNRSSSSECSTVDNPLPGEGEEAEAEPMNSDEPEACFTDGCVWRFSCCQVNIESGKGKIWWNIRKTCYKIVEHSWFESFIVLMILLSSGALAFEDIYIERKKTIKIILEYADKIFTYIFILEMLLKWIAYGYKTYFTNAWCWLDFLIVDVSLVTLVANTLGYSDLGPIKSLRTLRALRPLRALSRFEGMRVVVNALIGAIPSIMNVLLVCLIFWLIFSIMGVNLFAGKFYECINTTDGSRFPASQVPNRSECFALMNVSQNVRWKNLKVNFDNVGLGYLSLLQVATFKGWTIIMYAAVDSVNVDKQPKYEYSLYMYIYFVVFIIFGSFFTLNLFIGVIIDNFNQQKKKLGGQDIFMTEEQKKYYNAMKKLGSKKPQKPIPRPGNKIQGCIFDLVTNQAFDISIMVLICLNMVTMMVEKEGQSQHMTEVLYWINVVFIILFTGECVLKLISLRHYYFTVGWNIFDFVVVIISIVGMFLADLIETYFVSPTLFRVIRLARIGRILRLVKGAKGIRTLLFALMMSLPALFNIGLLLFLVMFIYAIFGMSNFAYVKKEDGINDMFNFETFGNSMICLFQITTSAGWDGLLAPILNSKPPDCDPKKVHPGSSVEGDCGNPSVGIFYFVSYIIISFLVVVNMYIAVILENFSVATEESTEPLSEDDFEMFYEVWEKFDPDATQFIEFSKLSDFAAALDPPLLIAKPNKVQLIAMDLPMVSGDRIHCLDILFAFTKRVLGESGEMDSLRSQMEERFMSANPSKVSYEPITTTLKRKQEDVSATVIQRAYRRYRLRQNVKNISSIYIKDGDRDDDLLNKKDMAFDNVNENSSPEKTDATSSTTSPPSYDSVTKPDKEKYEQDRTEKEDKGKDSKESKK

IC50 [nM] | SMILES
48 | COc1ccc(C)cc1-c1cc(OC)c(-n2c(=O)ccc3cc(S(=O)(=O)Nc4ccon4)ccc32)cc1F [Example 714, 1-(2-fluoro-2′,5-dimethoxy-5′-methyl-4-biphenylyl)-N-3-isoxazolyl-2-oxo-1,2-dihydro-6-quinolinesulfonamide]
151 | COc1cc(-c2cc(C)cnc2OC)c(F)cc1-n1c(=O)ccc2cc(S(=O)(=O)Nc3ccon3)ccc21 [Example 715, 1-(5-fluoro-2-methoxy-4-(2-methoxy-5-methyl-3-pyridinyl)phenyl)-N-3-isoxazolyl-2-oxo-1,2-dihydro-6-quinolinesulfonamide]
6 | COc1cc(-c2cc(C)ccc2Cl)c(F)cc1-n1c(=O)ccc2cc(S(=O)(=O)Nc3ccon3)ccc21 [Example 716, 1-(2′-chloro-2-fluoro-5-methoxy-5′-methyl-4-biphenylyl)-N-3-isoxazolyl-2-oxo-1,2-dihydro-6-quinolinesulfonamide]
153 | COc1ccc(C#N)cc1-c1cc(OC)c(-n2c(=O)ccc3cc(S(=O)(=O)Nc4ccon4)ccc32)cc1F [Example 718, 1-(5′-cyano-2-fluoro-2′,5-dimethoxy-4-biphenylyl)-N-3-isoxazolyl-2-oxo-1,2-dihydro-6-quinolinesulfonamide]
49 | COc1cc(-c2cccc(C)c2F)c(F)cc1-n1c(=O)ccc2cc(S(=O)(=O)Nc3ccon3)ccc21 [Example 719, 1-(2,2′-difluoro-5-methoxy-3′-methyl-4-biphenylyl)-N-3-isoxazolyl-2-oxo-1,2-dihydro-6-quinolinesulfonamide]
54 | COc1cc(-c2cc(OC)c(-n3c(=O)ccc4cc(S(=O)(=O)Nc5ccon5)ccc43)cc2F)ccc1C#N [Example 720, 1-(4′-cyano-2-fluoro-3′,5-dimethoxy-4-biphenylyl)-N-3-isoxazolyl-2-oxo-1,2-dihydro-6-quinolinesulfonamide]
32 | COc1cc(-c2cncc(C(F)(F)F)c2)c(F)cc1-n1c(=O)ccc2cc(S(=O)(=O)Nc3ccon3)ccc21 [Example 721, 1-(5-fluoro-2-methoxy-4-(5-(trifluoromethyl)-3-pyridinyl)phenyl)-N-3-isoxazolyl-2-oxo-1,2-dihydro-6-quinolinesulfonamide]
178 | COc1cc(-c2cnc(F)c(C)c2)c(F)cc1-n1c(=O)ccc2cc(S(=O)(=O)Nc3ccon3)ccc21 [Example 722, 1-(5-fluoro-4-(6-fluoro-5-methyl-3-pyridinyl)-2-methoxyphenyl)-N-3-isoxazolyl-2-oxo-1,2-dihydro-6-quinolinesulfonamide]
7 | COc1cc(Cl)cc(-c2cc(OC)cc(-c3cc(OC)c(-n4c(=O)ccc5cc(S(=O)(=O)Nc6ccon6)ccc54)cc3F)c2)c1 [Example 723, 1-(3″-chloro-2-fluoro-5,5′,5″-trimethoxy-1,1′:3′,1″-terphenyl-4-yl)-N-3-isoxazolyl-2-oxo-1,2-dihydro-6-quinolinesulfonamide]
12 | COc1cc(-c2ccc(C)cc2Cl)c(F)cc1-n1c(=O)ccc2cc(S(=O)(=O)Nc3ccon3)ccc21 [Example 725, 1-(2′-chloro-2-fluoro-5-methoxy-4′-methyl-4-biphenylyl)-N-3-isoxazolyl-2-oxo-1,2-dihydro-6-quinolinesulfonamide]
25 | CCOc1cccc(-c2cc(OC)c(-n3c(=O)ccc4cc(S(=O)(=O)Nc5ccon5)ccc43)cc2F)c1 [Example 727, 1-(3′-ethoxy-2-fluoro-5-methoxy-4-biphenylyl)-N-3-isoxazolyl-2-oxo-1,2-dihydro-6-quinolinesulfonamide]
8 | COc1cc(-c2cccc(OC(F)(F)F)c2)c(F)cc1-n1c(=O)ccc2cc(S(=O)(=O)Nc3ccon3)ccc21 [Example 728, 1-(2-fluoro-5-methoxy-3′-(trifluoromethoxy)-4-biphenylyl)-N-3-isoxazolyl-2-oxo-1,2-dihydro-6-quinolinesulfonamide]
598 | COc1ccc(-c2cc(OC)c(-n3c(=O)ccc4cc(S(=O)(=O)Nc5ccon5)ccc43)cc2F)cn1 [Example 729, 1-(5-fluoro-2-methoxy-4-(6-methoxy-3-pyridinyl)phenyl)-N-3-isoxazolyl-2-oxo-1,2-dihydro-6-quinolinesulfonamide]
795 | COc1cc(-c2cncc(F)c2)c(F)cc1-n1c(=O)ccc2cc(S(=O)(=O)Nc3ccon3)ccc21 [Example 730, 1-(5-fluoro-4-(5-fluoro-3-pyridinyl)-2-methoxyphenyl)-N-3-isoxazolyl-2-oxo-1,2-dihydro-6-quinolinesulfonamide]
142 | COc1cc(-c2cccc(OC)c2Cl)c(F)cc1-n1c(=O)ccc2cc(S(=O)(=O)Nc3ccon3)ccc21 [Example 731, 1-(2′-chloro-2-fluoro-3′,5-dimethoxy-4-biphenylyl)-N-3-isoxazolyl-2-oxo-1,2-dihydro-6-quinolinesulfonamide]
56 | COc1ccc(F)c(-c2cc(OC)c(-n3c(=O)ccc4cc(S(=O)(=O)Nc5ccon5)ccc43)cc2F)c1 [Example 732, 1-(2,2′-difluoro-5,5′-dimethoxy-4-biphenylyl)-N-3-isoxazolyl-2-oxo-1,2-dihydro-6-quinolinesulfonamide]

IC50 [nM] | SMILES
20 | COc1cc(-c2ccc(Cl)cc2F)c(F)cc1-n1c(=O)ccc2cc(S(=O)(=O)Nc3ccon3)ccc21 [Example 733, 1-(4′-chloro-2,2′-difluoro-5-methoxy-4-biphenylyl)-N-3-isoxazolyl-2-oxo-1,2-dihydro-6-quinolinesulfonamide]
81 | COc1cc(-c2cccc(OC)c2F)c(F)cc1-n1c(=O)ccc2cc(S(=O)(=O)Nc3ccon3)ccc21 [Example 734, 1-(2,2′-difluoro-3′,5-dimethoxy-4-biphenylyl)-N-3-isoxazolyl-2-oxo-1,2-dihydro-6-quinolinesulfonamide]
54 | COc1cc(-c2cccc(OC)c2C)c(F)cc1-n1c(=O)ccc2cc(S(=O)(=O)Nc3ccon3)ccc21 [Example 735, 1-(2-fluoro-3′,5-dimethoxy-2′-methyl-4-biphenylyl)-N-3-isoxazolyl-2-oxo-1,2-dihydro-6-quinolinesulfonamide]
2810 | COc1cc(-c2ccnc(C)c2)c(F)cc1-n1c(=O)ccc2cc(S(=O)(=O)Nc3ccon3)ccc21 [Example 736, 1-(5-fluoro-2-methoxy-4-(2-methyl-4-pyridinyl)phenyl)-N-3-isoxazolyl-2-oxo-1,2-dihydro-6-quinolinesulfonamide]
1250 | COc1cc(-c2cccnc2C)c(F)cc1-n1c(=O)ccc2cc(S(=O)(=O)Nc3ccon3)ccc21 [Example 737, 1-(5-fluoro-2-methoxy-4-(2-methyl-3-pyridinyl)phenyl)-N-3-isoxazolyl-2-oxo-1,2-dihydro-6-quinolinesulfonamide]
1230 | COc1cncc(-c2cc(OC)c(-n3c(=O)ccc4cc(S(=O)(=O)Nc5ccon5)ccc43)cc2F)c1 [Example 738, 1-(5-fluoro-2-methoxy-4-(5-methoxy-3-pyridinyl)phenyl)-N-3-isoxazolyl-2-oxo-1,2-dihydro-6-quinolinesulfonamide]
224 | COc1cc(-c2cc(OC)c(-n3c(=O)ccc4cc(S(=O)(=O)Nc5ccon5)ccc43)cc2F)ccn1 [Example 739, 1-(5-fluoro-2-methoxy-4-(2-methoxy-4-pyridinyl)phenyl)-N-3-isoxazolyl-2-oxo-1,2-dihydro-6-quinolinesulfonamide]
9 | COc1cc(-c2cnc(OC)c(Cl)c2)c(F)cc1-n1c(=O)ccc2cc(S(=O)(=O)Nc3ccon3)ccc21 [Example 740, 1-(4-(5-chloro-6-methoxy-3-pyridinyl)-5-fluoro-2-methoxyphenyl)-N-3-isoxazolyl-2-oxo-1,2-dihydro-6-quinolinesulfonamide]
71 | COc1cc(F)ccc1-c1cc(OC)c(-n2c(=O)ccc3cc(S(=O)(=O)Nc4ccon4)ccc32)cc1F [Example 741, 1-(2,4′-difluoro-2′,5-dimethoxy-4-biphenylyl)-N-3-isoxazolyl-2-oxo-1,2-dihydro-6-quinolinesulfonamide]
7 | COc1cc(-c2ccc(Cl)cc2C)c(F)cc1-n1c(=O)ccc2cc(S(=O)(=O)Nc3ccon3)ccc21 [Example 742, 1-(4′-chloro-2-fluoro-5-methoxy-2′-methyl-4-biphenylyl)-N-3-isoxazolyl-2-oxo-1,2-dihydro-6-quinolinesulfonamide]
5 | COc1cc(-c2cc(Cl)ccc2C)c(F)cc1-n1c(=O)ccc2cc(S(=O)(=O)Nc3ccon3)ccc21 [Example 743, 1-(5′-chloro-2-fluoro-5-methoxy-2′-methyl-4-biphenylyl)-N-3-isoxazolyl-2-oxo-1,2-dihydro-6-quinolinesulfonamide]
7 | COc1ccc(Cl)cc1-c1cc(OC)c(-n2c(=O)ccc3cc(S(=O)(=O)Nc4ccon4)ccc32)cc1F [Example 744, 1-(5′-chloro-2-fluoro-2′,5-dimethoxy-4-biphenylyl)-N-3-isoxazolyl-2-oxo-1,2-dihydro-6-quinolinesulfonamide]
51 | COc1cc(-c2ccnc(OC)c2Cl)c(F)cc1-n1c(=O)ccc2cc(S(=O)(=O)Nc3ccon3)ccc21 [Example 745, 1-(4-(3-chloro-2-methoxy-4-pyridinyl)-5-fluoro-2-methoxyphenyl)-N-3-isoxazolyl-2-oxo-1,2-dihydro-6-quinolinesulfonamide]
24 | COc1cc(-c2ccc(Cl)cc2)c(F)cc1-n1c(=O)ccc2cc(S(=O)(=O)Nc3cccnn3)ccc21 [Example 746, 1-(4′-chloro-2-fluoro-5-methoxy-4-biphenylyl)-2-oxo-N-3-pyridazinyl-1,2-dihydro-6-quinolinesulfonamide]
16 | COc1cc(-c2cccc(Cl)c2OC)c(F)cc1-n1c(=O)ccc2cc(S(=O)(=O)Nc3ccon3)ccc21 [Example 747, 1-(3′-chloro-2-fluoro-2′,5-dimethoxy-4-biphenylyl)-N-3-isoxazolyl-2-oxo-1,2-dihydro-6-quinolinesulfonamide]
573 | COc1cc(-c2ccncc2Cl)c(F)cc1-n1c(=O)ccc2cc(S(=O)(=O)Nc3ccon3)ccc21 [Example 748, 1-(4-(3-chloro-4-pyridinyl)-5-fluoro-2-methoxyphenyl)-N-3-isoxazolyl-2-oxo-1,2-dihydro-6-quinolinesulfonamide]
